target: T1, TcAAAP069 (Trypanosoma cruzi, UniProt Q4DAV2); experiment: cell-based; conditions: read-out: % inhibition at 10 mM
T1 construct: gene Tc00.1047053504069.120; full-length gene in pTREXL, overexpressed in T. cruzi epimastigotes (also p416/pDR196 in S. cerevisiae MG266 gap1 put4); about 10 transmembrane spans; allele TcAAAP229 has a 62-residue N-terminal extension
T1 sequence (Q4DAV2 entry or part of it): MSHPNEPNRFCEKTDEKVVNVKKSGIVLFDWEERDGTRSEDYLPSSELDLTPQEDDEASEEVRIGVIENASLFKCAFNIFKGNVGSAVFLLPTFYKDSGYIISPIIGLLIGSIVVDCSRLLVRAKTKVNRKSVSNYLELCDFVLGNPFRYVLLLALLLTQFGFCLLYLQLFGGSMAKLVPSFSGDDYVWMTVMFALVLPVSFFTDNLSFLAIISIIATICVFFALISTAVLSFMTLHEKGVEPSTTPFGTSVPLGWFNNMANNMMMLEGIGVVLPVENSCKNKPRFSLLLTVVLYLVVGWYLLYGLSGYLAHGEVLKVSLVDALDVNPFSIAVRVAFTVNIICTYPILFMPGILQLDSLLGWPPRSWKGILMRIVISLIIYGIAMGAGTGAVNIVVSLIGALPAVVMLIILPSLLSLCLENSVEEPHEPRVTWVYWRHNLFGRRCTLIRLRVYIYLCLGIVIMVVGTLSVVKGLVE

SMILES | inhibition at 10000 µM
O=C(O)[C@H]1CCCN1 [D-proline] | 76.3%
O=C(O)[C@@H]1C[C@@H](O)CN1 [hydroxyproline] | 91.8%
O=C(O)[C@@H]1CSCN1 [L-thiazolidine-4-carboxylic acid] | 44.2%

Source: PMC3956872 (PLoS ONE, 2014)
